Reference: paper doi:10.1101/2023.12.04.569845, “Identification of 4-(6-((2-methoxyphenyl)amino)pyrazin-2-yl)benzoic acids as CSNK2A inhibitors with antiviral activity and improved selectivity over PIM3” (bioRxiv, 2023)
Read-outs that look alike come from different tables or passages of the source.

What was measured:
Assay in all cases: biochemical
Design in all cases: Thermal shift (DSF, SYPRO Orange) Tm shift of recombinant kinase domains at 10 uM compound
AURKB = AURKB (Homo sapiens, UniProt Q96GD4)
CLK1 = CLK1 (Homo sapiens, UniProt P49759)
CLK1, sequence (P49759 whole entry): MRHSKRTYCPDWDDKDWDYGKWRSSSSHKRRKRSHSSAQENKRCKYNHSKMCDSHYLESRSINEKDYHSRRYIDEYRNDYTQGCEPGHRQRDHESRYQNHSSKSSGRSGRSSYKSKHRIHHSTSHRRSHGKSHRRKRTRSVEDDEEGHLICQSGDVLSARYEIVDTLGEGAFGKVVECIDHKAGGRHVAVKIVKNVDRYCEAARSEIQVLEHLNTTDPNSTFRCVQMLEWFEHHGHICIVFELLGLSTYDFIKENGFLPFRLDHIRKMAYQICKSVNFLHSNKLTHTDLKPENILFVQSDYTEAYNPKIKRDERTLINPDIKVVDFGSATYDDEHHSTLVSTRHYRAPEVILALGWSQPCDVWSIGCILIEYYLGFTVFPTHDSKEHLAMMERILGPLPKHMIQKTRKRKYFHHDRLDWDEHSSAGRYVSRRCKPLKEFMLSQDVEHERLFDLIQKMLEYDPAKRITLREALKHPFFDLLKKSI

FLT1 = FLT1 (Homo sapiens, UniProt P17948)
FLT1, sequence (P17948 whole entry): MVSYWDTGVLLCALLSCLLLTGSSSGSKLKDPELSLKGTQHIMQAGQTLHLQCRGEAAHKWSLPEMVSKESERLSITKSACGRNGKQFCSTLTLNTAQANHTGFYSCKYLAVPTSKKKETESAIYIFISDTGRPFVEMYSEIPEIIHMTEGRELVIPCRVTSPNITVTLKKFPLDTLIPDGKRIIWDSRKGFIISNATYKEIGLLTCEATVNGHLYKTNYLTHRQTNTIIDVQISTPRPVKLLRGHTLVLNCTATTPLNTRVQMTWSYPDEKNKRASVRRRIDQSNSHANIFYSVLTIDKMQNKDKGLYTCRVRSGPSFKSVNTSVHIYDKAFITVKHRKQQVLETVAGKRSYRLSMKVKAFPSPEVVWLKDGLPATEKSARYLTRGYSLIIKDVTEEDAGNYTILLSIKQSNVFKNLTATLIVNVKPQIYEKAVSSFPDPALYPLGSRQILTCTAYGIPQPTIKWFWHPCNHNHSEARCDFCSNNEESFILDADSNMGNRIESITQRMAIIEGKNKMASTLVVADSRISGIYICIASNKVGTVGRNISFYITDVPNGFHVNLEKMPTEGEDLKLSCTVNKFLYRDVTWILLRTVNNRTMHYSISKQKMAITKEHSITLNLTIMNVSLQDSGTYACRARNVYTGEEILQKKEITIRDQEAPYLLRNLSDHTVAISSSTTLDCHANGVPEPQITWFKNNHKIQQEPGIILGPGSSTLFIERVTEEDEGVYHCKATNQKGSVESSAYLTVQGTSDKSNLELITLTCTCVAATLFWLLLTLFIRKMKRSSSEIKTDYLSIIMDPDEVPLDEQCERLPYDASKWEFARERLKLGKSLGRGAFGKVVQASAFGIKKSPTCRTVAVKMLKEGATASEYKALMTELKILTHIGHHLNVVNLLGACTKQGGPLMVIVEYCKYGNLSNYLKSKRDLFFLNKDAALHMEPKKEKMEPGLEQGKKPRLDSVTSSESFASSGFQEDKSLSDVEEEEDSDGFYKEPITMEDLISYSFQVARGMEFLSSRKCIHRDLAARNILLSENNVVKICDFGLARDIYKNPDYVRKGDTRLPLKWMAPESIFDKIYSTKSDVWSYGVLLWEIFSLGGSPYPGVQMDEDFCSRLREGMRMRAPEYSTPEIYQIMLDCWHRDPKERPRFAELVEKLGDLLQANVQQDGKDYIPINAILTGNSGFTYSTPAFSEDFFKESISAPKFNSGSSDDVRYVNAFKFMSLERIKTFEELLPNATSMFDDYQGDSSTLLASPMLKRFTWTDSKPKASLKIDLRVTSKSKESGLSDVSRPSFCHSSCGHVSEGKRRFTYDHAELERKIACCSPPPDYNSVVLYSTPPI

MAP3K5 = target: T1, MAP3K5 (Homo sapiens, UniProt Q99683)
T1 sequence (Q99683 1-1374): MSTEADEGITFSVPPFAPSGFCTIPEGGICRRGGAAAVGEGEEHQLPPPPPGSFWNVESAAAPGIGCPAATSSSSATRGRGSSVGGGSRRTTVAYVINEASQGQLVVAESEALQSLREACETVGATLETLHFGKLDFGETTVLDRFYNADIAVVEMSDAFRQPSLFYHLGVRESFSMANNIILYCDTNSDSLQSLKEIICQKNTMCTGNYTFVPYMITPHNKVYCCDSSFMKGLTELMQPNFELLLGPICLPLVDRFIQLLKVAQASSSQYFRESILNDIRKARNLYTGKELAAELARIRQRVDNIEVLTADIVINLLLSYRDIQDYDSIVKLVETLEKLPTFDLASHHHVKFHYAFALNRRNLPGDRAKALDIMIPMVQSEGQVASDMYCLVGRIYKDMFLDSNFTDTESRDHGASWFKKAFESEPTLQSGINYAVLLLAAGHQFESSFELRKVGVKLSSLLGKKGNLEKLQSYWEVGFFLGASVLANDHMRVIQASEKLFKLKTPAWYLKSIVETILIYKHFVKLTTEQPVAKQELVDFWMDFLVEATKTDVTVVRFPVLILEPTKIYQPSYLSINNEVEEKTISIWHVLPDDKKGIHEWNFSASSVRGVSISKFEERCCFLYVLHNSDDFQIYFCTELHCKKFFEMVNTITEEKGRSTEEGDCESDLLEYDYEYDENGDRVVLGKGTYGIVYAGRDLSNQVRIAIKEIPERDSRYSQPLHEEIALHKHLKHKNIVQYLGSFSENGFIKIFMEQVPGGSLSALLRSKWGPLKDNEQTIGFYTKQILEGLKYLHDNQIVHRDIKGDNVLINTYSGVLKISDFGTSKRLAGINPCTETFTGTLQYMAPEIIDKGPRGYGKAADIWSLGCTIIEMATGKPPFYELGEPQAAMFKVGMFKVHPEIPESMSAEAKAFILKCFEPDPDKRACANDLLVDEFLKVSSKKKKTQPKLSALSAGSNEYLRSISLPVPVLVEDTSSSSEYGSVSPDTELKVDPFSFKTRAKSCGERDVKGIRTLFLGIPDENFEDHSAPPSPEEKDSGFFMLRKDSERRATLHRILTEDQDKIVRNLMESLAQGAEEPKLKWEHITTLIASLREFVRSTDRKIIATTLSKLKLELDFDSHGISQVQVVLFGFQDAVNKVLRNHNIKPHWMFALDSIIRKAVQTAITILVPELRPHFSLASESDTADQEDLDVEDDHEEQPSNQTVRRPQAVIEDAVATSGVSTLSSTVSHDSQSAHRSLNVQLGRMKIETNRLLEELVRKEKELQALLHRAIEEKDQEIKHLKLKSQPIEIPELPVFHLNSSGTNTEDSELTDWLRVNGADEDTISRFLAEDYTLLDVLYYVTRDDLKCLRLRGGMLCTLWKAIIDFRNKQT

EPHA4 = EPHA4 (Homo sapiens, UniProt P54764)
SRPK1 = SRPK1 (Homo sapiens, UniProt Q96SB4)
SRPK1, sequence (Q96SB4 whole entry): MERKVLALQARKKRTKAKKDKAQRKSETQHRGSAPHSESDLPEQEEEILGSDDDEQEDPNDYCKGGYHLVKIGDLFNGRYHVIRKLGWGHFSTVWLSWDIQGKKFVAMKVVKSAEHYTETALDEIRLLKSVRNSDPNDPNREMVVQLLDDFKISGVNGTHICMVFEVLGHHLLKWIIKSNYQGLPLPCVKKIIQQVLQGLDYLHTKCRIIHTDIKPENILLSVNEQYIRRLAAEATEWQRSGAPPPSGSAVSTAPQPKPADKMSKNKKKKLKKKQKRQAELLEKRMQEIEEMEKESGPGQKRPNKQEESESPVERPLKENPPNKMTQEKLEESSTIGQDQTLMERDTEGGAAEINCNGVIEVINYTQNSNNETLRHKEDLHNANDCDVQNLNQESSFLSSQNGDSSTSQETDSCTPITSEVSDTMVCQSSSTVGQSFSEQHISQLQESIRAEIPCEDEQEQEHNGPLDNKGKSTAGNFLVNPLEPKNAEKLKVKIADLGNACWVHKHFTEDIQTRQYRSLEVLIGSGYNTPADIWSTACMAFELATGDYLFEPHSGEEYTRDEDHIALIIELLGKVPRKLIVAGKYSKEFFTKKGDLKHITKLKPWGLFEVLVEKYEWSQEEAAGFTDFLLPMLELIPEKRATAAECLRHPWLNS

p38a = target: T2, p38a (Homo sapiens, UniProt Q16539)
T2 construct: gene MAPK14
T2 sequence (Q16539 whole entry): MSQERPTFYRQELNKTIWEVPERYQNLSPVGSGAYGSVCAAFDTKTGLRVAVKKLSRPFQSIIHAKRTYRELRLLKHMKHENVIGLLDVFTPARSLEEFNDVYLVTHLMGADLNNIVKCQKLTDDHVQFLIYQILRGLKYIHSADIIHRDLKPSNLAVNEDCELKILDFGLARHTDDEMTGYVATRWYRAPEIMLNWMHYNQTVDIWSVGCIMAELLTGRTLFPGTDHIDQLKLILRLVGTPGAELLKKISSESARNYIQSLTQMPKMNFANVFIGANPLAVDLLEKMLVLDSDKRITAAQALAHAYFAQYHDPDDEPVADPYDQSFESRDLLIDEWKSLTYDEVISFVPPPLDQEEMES

TAF1 = TAF1 (Homo sapiens, UniProt P21675)
TAF1, sequence (P21675 whole entry): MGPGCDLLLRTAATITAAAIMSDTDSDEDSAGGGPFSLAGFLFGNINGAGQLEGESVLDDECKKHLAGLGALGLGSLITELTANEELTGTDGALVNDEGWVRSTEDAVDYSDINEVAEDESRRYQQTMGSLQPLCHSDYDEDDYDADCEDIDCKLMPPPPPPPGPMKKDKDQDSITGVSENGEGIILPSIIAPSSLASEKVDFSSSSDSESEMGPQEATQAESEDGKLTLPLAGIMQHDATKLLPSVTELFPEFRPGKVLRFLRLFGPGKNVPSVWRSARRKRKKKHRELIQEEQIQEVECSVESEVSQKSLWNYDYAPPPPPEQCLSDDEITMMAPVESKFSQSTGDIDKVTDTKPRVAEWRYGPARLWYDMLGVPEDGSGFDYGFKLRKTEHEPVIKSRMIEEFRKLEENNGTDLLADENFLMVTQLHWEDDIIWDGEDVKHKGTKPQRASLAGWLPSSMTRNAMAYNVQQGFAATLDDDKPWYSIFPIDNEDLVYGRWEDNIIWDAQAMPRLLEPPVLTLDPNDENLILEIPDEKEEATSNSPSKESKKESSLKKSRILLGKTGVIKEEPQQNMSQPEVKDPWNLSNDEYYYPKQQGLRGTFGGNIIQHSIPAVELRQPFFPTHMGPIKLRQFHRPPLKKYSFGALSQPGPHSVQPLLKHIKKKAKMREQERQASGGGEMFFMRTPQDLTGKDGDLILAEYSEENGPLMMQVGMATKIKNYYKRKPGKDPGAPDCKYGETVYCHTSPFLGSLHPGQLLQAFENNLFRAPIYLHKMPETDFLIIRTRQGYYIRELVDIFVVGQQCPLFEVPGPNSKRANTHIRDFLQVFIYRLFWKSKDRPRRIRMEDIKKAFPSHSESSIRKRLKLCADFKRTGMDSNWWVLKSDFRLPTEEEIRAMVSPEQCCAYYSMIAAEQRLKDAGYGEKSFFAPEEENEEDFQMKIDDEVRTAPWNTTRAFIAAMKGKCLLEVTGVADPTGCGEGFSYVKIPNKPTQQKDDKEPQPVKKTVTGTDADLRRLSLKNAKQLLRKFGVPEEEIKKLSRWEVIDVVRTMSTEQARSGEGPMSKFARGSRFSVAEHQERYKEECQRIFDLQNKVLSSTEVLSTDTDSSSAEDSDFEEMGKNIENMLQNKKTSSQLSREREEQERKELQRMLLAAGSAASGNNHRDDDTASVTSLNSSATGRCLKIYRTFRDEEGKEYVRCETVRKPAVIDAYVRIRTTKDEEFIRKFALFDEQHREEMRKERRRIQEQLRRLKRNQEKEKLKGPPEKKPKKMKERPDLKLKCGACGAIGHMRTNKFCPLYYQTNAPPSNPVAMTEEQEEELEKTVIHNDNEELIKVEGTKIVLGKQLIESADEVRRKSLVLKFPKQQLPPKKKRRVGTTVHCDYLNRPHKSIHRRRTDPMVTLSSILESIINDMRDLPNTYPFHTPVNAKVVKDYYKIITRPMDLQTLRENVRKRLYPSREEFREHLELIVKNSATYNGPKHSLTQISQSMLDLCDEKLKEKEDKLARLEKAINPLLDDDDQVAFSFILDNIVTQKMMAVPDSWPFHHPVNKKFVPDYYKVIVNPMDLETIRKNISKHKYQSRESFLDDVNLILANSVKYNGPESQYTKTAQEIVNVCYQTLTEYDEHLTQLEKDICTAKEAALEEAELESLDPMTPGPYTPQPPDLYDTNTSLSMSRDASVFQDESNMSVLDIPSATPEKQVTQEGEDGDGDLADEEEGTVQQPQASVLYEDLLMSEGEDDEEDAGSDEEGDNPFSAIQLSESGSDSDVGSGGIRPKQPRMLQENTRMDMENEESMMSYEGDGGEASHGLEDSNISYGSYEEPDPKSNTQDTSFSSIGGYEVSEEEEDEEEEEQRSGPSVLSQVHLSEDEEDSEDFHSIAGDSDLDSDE

CDKL1 = CDKL1 (Homo sapiens, UniProt Q00532)
CDKL1, sequence (Q00532 whole entry): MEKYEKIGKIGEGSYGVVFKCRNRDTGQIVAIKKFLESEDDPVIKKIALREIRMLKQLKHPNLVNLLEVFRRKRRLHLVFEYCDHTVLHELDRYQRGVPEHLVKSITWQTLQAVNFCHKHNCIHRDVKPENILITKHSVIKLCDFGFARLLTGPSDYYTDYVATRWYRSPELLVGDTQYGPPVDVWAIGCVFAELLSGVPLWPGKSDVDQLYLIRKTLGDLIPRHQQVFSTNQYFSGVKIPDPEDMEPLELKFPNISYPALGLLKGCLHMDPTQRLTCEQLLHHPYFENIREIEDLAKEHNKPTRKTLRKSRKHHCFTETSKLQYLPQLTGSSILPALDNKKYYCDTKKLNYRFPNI

Work on COc1ccc(OC(C)C)cc1Nc1cncc(-c2ccc(C(=O)O)cc2)n1 [7c] yielded a ΔTm at 10 µM (AURKB; read-out: 7c) of 2 °C, a ΔTm at 10 µM (CLK1; read-out: 7c) of 7 °C and a ΔTm at 10 µM (FLT1; read-out: 7c) of 5 °C. For the same molecule, the ΔTm at 10 µM (MAP3K5; read-out: 7c) was 1 °C, the ΔTm at 10 µM (EPHA4; read-out: 7c) was 1 °C and the ΔTm at 10 µM (SRPK1; read-out: 7c) was 3 °C. For the same molecule, the ΔTm at 10 µM (p38a; read-out: 7c) was -1 °C, the ΔTm at 10 µM (TAF1; read-out: 7c) was 1 °C and the ΔTm at 10 µM (CDKL1; read-out: 7c) was 1 °C.

CC(C)Nc1ccc2cnn(-c3cncc(-c4ccc(C(=O)O)cc4)n3)c2c1 [compound 2, 2] was tested, and the ΔTm at 10 µM (AURKB; read-out: 2) was 4 °C, the ΔTm at 10 µM (CLK1; read-out: 2) was 7 °C and the ΔTm at 10 µM (FLT1; read-out: 2) was 7 °C. It also gave a ΔTm at 10 µM (MAP3K5; read-out: 2) of 5 °C, a ΔTm at 10 µM (EPHA4; read-out: 2) of 2 °C and a ΔTm at 10 µM (SRPK1; read-out: 2) of 6 °C. It also gave a ΔTm at 10 µM (p38a; read-out: 2) of -1 °C, a ΔTm at 10 µM (TAF1; read-out: 2) of 0 °C and a ΔTm at 10 µM (CDKL1; read-out: 2) of 2 °C.

For CC(C)Oc1ccc2ccn(-c3cncc(-c4ccc(C(=O)O)cc4)n3)c2c1 [6c], the ΔTm at 10 µM (AURKB; read-out: 6c) was 4 °C, the ΔTm at 10 µM (CLK1; read-out: 6c) was 7 °C and the ΔTm at 10 µM (FLT1; read-out: 6c) was 7 °C. It also gave a ΔTm at 10 µM (MAP3K5; read-out: 6c) of 3 °C, a ΔTm at 10 µM (EPHA4; read-out: 6c) of 2 °C and a ΔTm at 10 µM (SRPK1; read-out: 6c) of 6 °C. The ΔTm at 10 µM (p38a; read-out: 6c) was -3 °C, the ΔTm at 10 µM (TAF1; read-out: 6c) was 1 °C and the ΔTm at 10 µM (CDKL1; read-out: 6c) was 3 °C.
